# Results published in patent US20080220103A1, “METHOD FOR TREATING/CONTROLLING/KILLING FUNGI AND BACTERIA ON LIVING ANIMALS” (priority 2005, published 2008).
# Read-outs that look alike come from different tables or passages of the source.
# Experiments:
# T. rubrum [1] = assay: Minimum fungicidal concentration (Canton et al.); type: cell-based, Trichophyton rubrum; conditions: for MFC: Trichophyton rubrum
# Description: (§1) Minimum fungicidal concentration (MFC): The minimum fungicidal concentrations of various agents were determined using the technique described by Canton et al. (Antimicrob Agents Chemother. 2004 8:2477-82). In that method, fungal conidia were collected following growth on potato dextrose agar (PDA) plates and were used to inoculate 96-well plates containing different concentrations of agents. Following incubation at 35° C. for 4 days (for dermatophytes) or 24 hours (for yeast), wells showing no visible growth were cultured to determine the MFC (defined as the lowest concentration of a given agent that kills>99.999% of fungal conidia or spores). The MFC value represents the level of the agent at which spores or conidia were killed.
# T. mentagrophytes [2] = assay: Minimum fungicidal concentration (Canton et al.); type: cell-based, Trichophyton mentagrophytes; conditions: for MFC: Trichophyton mentagrophytes
# Description: as §1
# T. mentagrophytes [3] = assay: Scanning electron microscopy of treated discs; type: cell-based, Trichophyton mentagrophytes; conditions: for SEM: fungal growth on insole, post-contamination treatment / SEM: fungal growth on insole, pretreatment: insole biopsy disc; for SEM: fungal growth on leather, pretreatment: leather biopsy disc
# Description: Scanning electron microscopy (SEM) was used to monitor the ability of agents to eradicate fungal growth on shoe insoles or leather biopsy discs. Pre- and post-treated discs were processed for SEM by the method of Chandra et al. One set of discs was used as a control in which no drug pre- or post-treatment was performed. In addition, one set of biopsy discs was used as blank where no fungal cells or drug were added. Following treatment, discs were fixed with 2% glutaraldehyde for 2 h, and then washed with sodium cacodylate buffer (three times for 10 minutes each). The discs were then treated with 1% osmium tetraoxide (for 1 h at 4° C.) followed by a series of washing with sodium cacodylate buffer, followed by a two times washing with distilled water. Next, the discs were treated with 1% tannic acid washed three times with distilled water, and followed by 1% uranyl acetate with two water washings. The samples were then dehydrated through a series of ethanol solutions (range from 25% (vol/vol) ethanol in distilled water to absolute ethanol). Prepared samples were then sputter coated with Au/Pd (60/40) and viewed with Amray 1000B scanning electron microscope.
# T. mentagrophytes [4] = assay: Post-treatment insole biopsy disc assay; type: cell-based, Trichophyton mentagrophytes
# Text: (§2) Based on the above experiments, our disc biopsy assay employed Dr. Scholl's insole and leather discs as the optimal substrates representing materials used in shoes, and 30% isopropanol as the optimal vehicle to dissolve the agents to be tested in pre-treatment and post-treatment studies.
# (§3) Two types of disc biopsy assays were used to evaluate the ability of different synthetic and natural substances to disinfect shoe material: (a) Pre-treatment assay: where discs were pre-treated with antifungals first and then infected with T. mentagrophytes, and (b) Post-treatment assay: where discs were first infected with T. mentagrophytes, then treated with drugs. These assays reveal the ability of different agents to prevent and treat shoe fungal contamination, respectively.
# (§4) Post-treatment assays: To evaluate the ability of various agents to treat infected shoes, PDA plates were prepared on which […] T. mentagrophytes cells were evenly spread on their surface. Next, untreated biopsy discs were placed on these PDA plates and incubated for 4 days at 30° C. Incubating the biopsy discs in this manner allowed the fungi to invade the discs. Infected discs were picked and post-treated with different agents by spraying. Post-treated discs were allowed to air dry and were then placed on fresh, uninoculated PDA plates and incubated for 4 additional days at 30° C. Incubation of the discs under these conditions allows any fungi that are not killed by the sprayed agent to grow. In other words, agents that are effective in the treatment of shoe material will not show any fungal growth around the disc biopsy (FIG. 1C). In contrast, discs treated with ineffective agents will show fungal growth emanating from them (FIG. 1D). Diameter of the growth zone (GZD) was determined as a measure of the activity of the agent tested.
# T. mentagrophytes [5] = assay: Pre-treatment leather biopsy disc assay; type: cell-based, Trichophyton mentagrophytes
# Text: (§5) Based on the above experiments, our disc biopsy assay employed Dr. Scholl's insole and leather discs as the optimal substrates representing materials used in shoes, and 30% isopropanol as the optimal vehicle to dissolve the agents to be tested in pre-treatment and post-treatment studies. Two types of disc biopsy assays were used to evaluate the ability of different synthetic and natural substances to disinfect shoe material: (a) Pre-treatment assay: where discs were pre-treated with antifungals first and then infected with T. mentagrophytes, and (b) Post-treatment assay: where discs were first infected with T. mentagrophytes, then treated with drugs. These assays reveal the ability of different agents to prevent and treat shoe fungal contamination, respectively. Pre-treatment assays: To evaluate the ability of different agents to prevent fungal contaminations of shoes, PDA plates were prepared on which 10^4 T. mentagrophytes cells were evenly spread. Next, discs from insoles and leather were treated as follows (with either agent or control vehicle): discs were pretreated with a single spray, spraying for 15 second or 30 second. Other discs were immersed in agent or vehicle for 30 min. Following this treatment, discs were air-dried by placing them in a Petri plate for 1 min. These dried discs were then placed (drug side down) on the seeded PDA plates. Plates were then incubated for 4 days at 30° C. Following incubation, fungal growth was recorded. […] Diameter of the clearance zone (CZD) was measured. The relative activity of different agents and control were assessed.
# T. rubrum [6] = assay: Pre-treatment insole assay, combination (FIG. 10); type: cell-based, Trichophyton rubrum; conditions: 0.01% synthetic agent, 3% tea tree oil, singly or combined
# Description: Pre-treatment assays: To evaluate the ability of different agents to prevent fungal contaminations of shoes, PDA plates were prepared on which 10^4 T. mentagrophytes cells were evenly spread. Next, discs from insoles and leather were treated as follows (with either agent or control vehicle): discs were pretreated with a single spray, spraying for 15 second or 30 second. Other discs were immersed in agent or vehicle for 30 min. Following this treatment, discs were air-dried by placing them in a Petri plate for 1 min. These dried discs were then placed (drug side down) on the seeded PDA plates. Plates were then incubated for 4 days at 30° C. Following incubation, fungal growth was recorded. […] Diameter of the clearance zone (CZD) was measured. The relative activity of different agents and control were assessed. […] To determine whether using combination of synthetic compounds and essential oils will allow the use of low concentrations of synthetic drugs, we tested the ability of combination of 0.01% tolnaftate and 3% tea tree oil to prevent shoe contamination using the pre- and post-treatment insole bioassays described above.
# T. mentagrophytes [7] = assay: Post-treatment leather biopsy disc assay; type: cell-based, Trichophyton mentagrophytes
# Text: as §2, §3, §4
# T. mentagrophytes [8] = assay: Pre-treatment insole biopsy disc assay; type: cell-based, Trichophyton mentagrophytes
# Text: as §5
# T. rubrum [9] = assay: Post-treatment insole assay, combination (FIG. 10); type: cell-based, Trichophyton rubrum; conditions: 0.01% tolnaftate, 3% tea tree oil, singly or combined
# [10] = T. rubrum strain 1967, read-out: MFC
# [11] = T. rubrum strain 2098, read-out: MFC
# [12] = T. rubrum strain 2246, read-out: MFC
# [13] = T. rubrum strain 8063, read-out: MFC
# [14] = T. rubrum strain 8071, read-out: MFC
# [15] = T. rubrum strain 8092, read-out: MFC
# [16] = T. rubrum, n = 6, read-out: MFC, row MIC50
# [17] = T. rubrum, n = 6, read-out: MFC, row MIC90
# [18] = T. mentagrophytes strain 2124, read-out: MFC
# [19] = T. mentagrophytes strain 2125, read-out: MFC
# [20] = T. mentagrophytes strain 2127, read-out: MFC
# [21] = T. mentagrophytes strain 2128, read-out: MFC
# [22] = T. mentagrophytes, n = 6, read-out: MFC, row MIC50
# [23] = T. mentagrophytes, n = 6, read-out: MFC, row MIC90
SMILES,"MFC range (row MIC Range) (T. rubrum [1]; T. rubrum, n = 6) [µg/mL]",MFC (T. rubrum [1]; [10]) [µg/mL],MFC (T. rubrum [1]; [11]) [µg/mL],MFC (T. rubrum [1]; [12]) [µg/mL],MFC (T. rubrum [1]; [13]) [µg/mL],MFC (T. rubrum [1]; [14]) [µg/mL],MFC (T. rubrum [1]; [15]) [µg/mL],MFC (T. rubrum [1]; [16]) [µg/mL],MFC (T. rubrum [1]; [17]) [µg/mL],MFC (T. mentagrophytes [2]; [18]) [µg/mL],MFC (T. mentagrophytes [2]; [19]) [µg/mL],MFC (T. mentagrophytes [2]; [20]) [µg/mL],MFC (T. mentagrophytes [2]; [21]) [µg/mL],MFC (T. mentagrophytes [2]; [22]) [µg/mL],MFC (T. mentagrophytes [2]; [23]) [µg/mL],"SEM: fungal growth on insole, post-contamination treatment (T. mentagrophytes [3])","SEM: fungal growth on insole, pretreatment (T. mentagrophytes [3])","SEM: fungal growth on leather, pretreatment (T. mentagrophytes [3])","Insoles Post-contamination Treatment (GZD, growth zone diameter) (T. mentagrophytes [4]; 1% spray in 30% isopropanol) [mm]",Leather Pretreatment (CZD) (T. mentagrophytes [5]; 1% spray in 30% isopropanol) [mm],also measured
"Clc1ccc(COC(Cn2ccnc2)c2ccc(Cl)cc2Cl)c(Cl)c1 (centres unmarked) [Miconazole, miconazole]",1 to 8,8,4,1,8,8,8,8,8,> 8,> 8,> 8,> 8,> 8,> 8,–,–,–,–,–,–
"CN(C/C=C/C#CC(C)(C)C)Cc1cccc2ccccc12 [Terbinafine, terbinafine]",0.03 to 0.125,0.125,0.06,0.06,0.06,0.06,0.03,0.06,0.125,0.125,0.125,0.06,0.125,0.125,0.125,complete clearance of fungal growth,completely eradicated fungal growth,completely eradicated fungal growth,0,85,"effect of pretreatment of insoles on fungal growth (T. rubrum [6]): did not result in any inhibition of fungal growth; Leather Post-contamination Treatment (GZD) (T. mentagrophytes [7]; 1% spray in 30% isopropanol): 0 mm; Insoles Pretreatment (CZD, clearance zone diameter) (T. mentagrophytes [8]; 1% spray in 30% isopropanol): 85 mm; MFC range (row MIC Range) (T. mentagrophytes [2]; T. mentagrophytes, n = 6): 0.06 to 0.125 µg/mL"
"Cc1cccc(N(C)C(=S)Oc2ccc3ccccc3c2)c1 [Tolnaftate, tolnaftate]",0.06 to 0.125,0.06,0.06,0.06,0.06,0.06,0.125,0.06,0.125,0.5,0.5,1,1,0.5,1,minimally effective,completely eradicated fungal growth,did not completely eradicate dermatophyte growth,8,18,"Insoles Post-contamination Treatment (GZD, growth zone diameter) (T. mentagrophytes [4]; 2% spray in 30% isopropanol): 10 mm; fungal regrowth from established contamination (T. mentagrophytes [4]; 4% (w/v) in acetone, insole disc): no fungal regrowth was observed; Leather Pretreatment (CZD) (T. mentagrophytes [5]; 1% spray in 30% isopropanol, listed as tolnaftate): 16 mm; Leather Pretreatment (CZD) (T. mentagrophytes [5]; 2% spray in 30% isopropanol): 6 mm; Leather Post-contamination Treatment (GZD) (T. mentagrophytes [7]; 1% spray in 30% isopropanol): 11 mm; Leather Post-contamination Treatment (GZD) (T. mentagrophytes [7]; 2% spray in 30% isopropanol): 11 mm; Insoles Pretreatment (CZD, clearance zone diameter) (T. mentagrophytes [8]; 1% spray in 30% isopropanol): 25 mm; Insoles Pretreatment (CZD, clearance zone diameter) (T. mentagrophytes [8]; 2% spray in 30% isopropanol): 10 mm; Insoles Pretreatment (CZD, clearance zone diameter) (T. mentagrophytes [8]; 2% spray in 30% isopropanol, listed as tolnaftate): 11 mm; preventive activity against dermatophytes infecting shoes (T. mentagrophytes [8]; acetone as vehicle): potent preventive activity; effect of post-contamination treatment of insoles on fungal growth (T. rubrum [9]): did not prevent growth of fungus; MFC range (row MIC Range) (T. mentagrophytes [2]; T. mentagrophytes, n = 6): 0.5 to 1 µg/mL"
